Results on three compounds are retold here after publication PMC10011747, “Targeting androgen receptor and the variants by an orally bioavailable Proteolysis Targeting Chimeras compound in castration resistant prostate cancer” (eBioMedicine, 2023).

Where two headings read alike, the source gives them in different places.

The subject of one series is full-length AR. The series is described as follows: AR degradation by western blot in prostate cancer cell lines. The following applies: for sustainability of AR and AR-V(ΔLBD) degradation after drug washout: 10 μM for 24 h then washout, LNCaP, CWR22Rv1, VCaP; for AR degradation: CWR22Rv1 cells (Table S1); for DC50: 24 h treatment; for AR Dmax CWR22Rv1 / AR Dmax VCaP: maximum degradation at 20 μM. The format is cell-based, human. Here is the method: To obtain total lysates, cells were lysed in RIPA buffer (50 mM Tris–HCl pH 8.0, 150 mM NaCl, 1% NP-40, 0.5% Na-deoxycholate, 0.5% SDS plus protease inhibitors). The lysates were resolved by SDS-polyacrylamide gel electrophoresis, and the protein expression was analyzed by western blotting using primary antibodies against AR (Millipore Cat# 06-680, RRID:AB_310214), AR-V7 (RevMAb Biosciences Cat# 31-1109-00, RRID:AB_2716436), GAPDH (Cell Signaling Technology Cat# 2118, RRID:AB_561053) and Actin (Sigma–Aldrich Cat# A5441, RRID:AB_476744). pLenti4/TO/Flag-AR or pLenti4/TO/Flag-TC-AR plasmid was co-transfected with HA-ubiquitin plasmid into 293T cells. 24 h after transfection, the cells were treated with 10 μM of the PROTAC compounds for 16 h, followed by 4-h treatment of 5 μM MG132. The cells were lysed with lysis buffer (50 mM Tris–HCl pH7.5, 150 mM NaCl, 0. 5% Triton X-100, 10% glycerol, 1 mM EDTA plus protease inhibitors) containing 1 ng/mL of N-ethylmaleimide, followed by immunoprecipitation with anti-Flag M2 (Sigma–Aldrich Cat# F3165, RRID:AB_259529) antibody. The ubiquitinated AR was then detected by western blotting using anti-HA (Sigma–Aldrich Cat# H3663, RRID:AB_262051) antibody.
Fig. 1 PROTAC-based AR degraders ITRI-90, ITRI-125 and ITRI-126 reduce AR and AR-V7 proteins in prostate cancer cell lines. (a) Chemical structure of the PROTAC AR degraders. (b) Representative western blots of AR protein levels in LNCaP, CWR22Rv1 and VCaP cells treated with the PROTAC degraders for 24 h. AR was detected by N-terminal antibody which also detects C-terminal truncated AR-V(ΔLBD) in CWR22Rv1 cells. AR-V7 specific antibody was used for AR-V7 detection. 4%–12% gradient gel was used to separate different species of AR-V(ΔLBD) near 75 kDa in CWR22Rv1 cell lysates. DC50 indicating the concentration required to achieve 50% degradation, was calculated based on normalized full-length AR and AR-V7 band intensity. Dmax is the maximum degradation achieved at 20 μM compound treatment. TEXT PRINTED IN THE PICTURE: (a) ITRI-90: AR DC50 (μM) LNCaP: 2.12 ± 0.93; AR DC50 (μM) CWR22Rv1: 5.73 ± 2.28; AR DC50 (μM) VCaP: 8.67 ± 4.87; AR-V7 DC50 (μM) CWR22Rv1: 4.72 ± 2.52; AR-V7 DC50 (μM) VCaP: 0.29 ± 0.15; AR Dmax (%) LNCaP: 88; AR Dmax (%) CWR22Rv1: 98; AR Dmax (%) VCaP: 90; AR-V7 Dmax (%) CWR22Rv1: 100; AR-V7 Dmax (%) VCaP: 63 | (a) ITRI-125: AR DC50 (μM) LNCaP: 6.10 ± 4.43; AR DC50 (μM) CWR22Rv1: 6.64 ± 1.87; AR DC50 (μM) VCaP: 9.05 ± 3.75; AR-V7 DC50 (μM) CWR22Rv1: 1.89 ± 1.06; AR-V7 DC50 (μM) VCaP: 0.52 ± 0.37; AR Dmax (%) LNCaP: 71; AR Dmax (%) CWR22Rv1: 96; AR Dmax (%) VCaP: 85; AR-V7 Dmax (%) CWR22Rv1: 99; AR-V7 Dmax (%) VCaP: 67 | (a) ITRI-126: AR DC50 (μM) LNCaP: 3.41 ± 3.13; AR DC50 (μM) CWR22Rv1: 0.11 ± 0.02; AR DC50 (μM) VCaP: 0.851 ± 0.43; AR-V7 DC50 (μM) CWR22Rv1: 0.011 ± 0.003; AR-V7 DC50 (μM) VCaP: 0.43 ± 0.19; AR Dmax (%) LNCaP: 99; AR Dmax (%) CWR22Rv1: 74; AR Dmax (%) VCaP: 94; AR-V7 Dmax (%) CWR22Rv1: 91; AR-V7 Dmax (%) VCaP: 82
(In general: A western blot detects proteins with antibodies after separation by electrophoresis.)

Series [1] can be described thus: Pharmacokinetic analysis in BALB/c mice. The format is in vivo, mouse. The following applies: for bioavailability: read-out: BA (bioavailability); for clearance: read-out: plasma clearance rate. On the procedure:
Six to eight-week-old male BALB/c (BALB/cAnNCrlBltw) mice weighing between 22 and 30 g were purchased from BioLASCO Taiwan Co., Ilan, Taiwan. In vivo PK analysis of the PROTAC compounds was performed with 2 mg/kg for intravenous injection (IV, n = 2), 10 mg/kg for intraperitoneal injection (IP, n = 3), and 10 or 30 mg/kg for oral (PO, n = 3) dosing route. Blood samples from the mice were collected using Microvette® CB 300 EDTA blood collection tubes by a lancet at 0.167 h (IV only), 0.5, 1, 2, 4, 7 and 24 h time points. The plasma was then subjected to LC-MS analysis to quantitate the drug concentration against calibration curves that were established with drug standards prepared in mice plasma.

Where [2] appears, read: CWR22Rv1 cells, read-out: AR DC50 CWR22Rv1.
[3] abbreviates: VCaP cells, read-out: AR DC50 VCaP.
Where [4] appears, read: male, BALB/c, mouse, plasma, IP, 10 mg/kg.
Setting [5] is: male, BALB/c, mouse, plasma, PO, 30 mg/kg.
Where [6] appears, read: male, BALB/c, mouse, plasma, intravenous, 2 mg/kg.
The mark [7] stands for this setting: male, BALB/c, mouse, plasma, ip, 10 mg/kg, 0-24 h.
The mark [8] stands for this setting: male, BALB/c, mouse, plasma, ip, 10 mg/kg, IP, 10 mg/kg, read-out: Cmax.
[9] abbreviates: male, BALB/c, mouse, plasma, PO, 10 mg/kg.

As usually defined, the DC50 is the midpoint of the concentration-degradation curve. By Cmax is commonly meant the maximum level reached in the sampled fluid or tissue. In general, Tmax refers to the time from dosing to the highest level. The term bioavailability denotes the share of a dose that reaches the circulation, judged against a reference dose that is usually intravenous. A word on the clearance: it is a measure of how efficiently the substance is removed, as volume per time. One may read the AUC(0-t) as exposure summed from dosing to a finite time, without extrapolation to infinity. For `Cc1ncsc1-c1ccc(CNC(=O)[C@@H]2C[C@H](O)CN2C(=O)[C@@H](NC(=O)COCCCCOc2ccc(C3CCN(C4=Nn5c(nnc5C(F)(F)F)CC4)CC3)cc2)C(C)(C)C)cc1` [ITRI-90, (2S,4S)-1-((S)-3,3-dimethyl-2-(2-(4-(4-(1-(3-(trifluoromethyl)-7,8-dihydro-[1,2,4]triazolo[4,3-b]pyridazin-6-yl)piperidin-4-yl)phenoxy)butoxy)acetamido)butanoyl)-4-hydroxy-N-(4-(4-methylthiazol-5-yl)benzyl)pyrrolidine-2-carboxamide], the “sustainability of AR and AR-V(ΔLBD) degradation after drug washout” value in the series on full-length AR was “sustain low protein levels up to 24 h after drug washout”. This compound also displayed an AR degradation in the series on full-length AR of 98.28%. The DC50 in the series on full-length AR (setting [2]) turned out to be 5.73 ± 2.28 µM; in the series on full-length AR (setting [3]) it was 8.67 ± 4.87 µM. Besides, the “AR Dmax CWR22Rv1” value with full-length AR (CWR22Rv1 cells) stood at 98%. Moreover, the “AR Dmax VCaP” value in the series on full-length AR (VCaP cells) turned out to be 90%. Further, the Cmax in series [1] (PO, 30 mg/kg) was determined as 7056.67 ± 2594.81 ng/mL; in series [1] (setting [8]), 3940 ± 1140 ng/mL; in series [1] (male, BALB/c, mouse, plasma, po, 30 mg/kg, PO, 30 mg/kg, read-out: Cmax), 7060 ng/mL. This compound gave an AUC/Dose in series [1] (PO, 30 mg/kg, 0-24 h) of 600.13 ± 263.33 h⋅kg⋅ng/mL/mg. The Tmax in series [1] (setting [4]) was found to be 1.5 ± 0.7 h; in series [1] (setting [5]) it was 1.67 ± 0.58 h. Besides, the bioavailability in series [1] (setting [5]) worked out at 23%. Also, in series [1] (setting [6]), the clearance was found to be 6.62 mL/min/kg. In addition, the AUC(0-t) was 25500 ± 13600 ng·h/mL in series [1] (setting [7]) and 18000 ng·h/mL in series [1] (male, BALB/c, mouse, plasma, po, 30 mg/kg, 0-24 h).

As for `O=C1CCC(N2Cc3c(NC(=O)COCCCCOc4ccc(C5CCN(C6=Nn7c(nnc7C(F)(F)F)CC6)CC5)cc4)cccc3C2=O)C(=O)N1` (stereo not drawn) [ITRI-126, N-(2-(2,6-dioxopiperidin-3-yl)-1-oxoisoindolin-4-yl)-2-(4-(4-(1-(3-(trifluoromethyl)-7,8-dihydro-[1,2,4]triazolo[4,3-b]pyridazin-6-yl)piperidin-4-yl)phenoxy)butoxy)acetamide], the “sustainability of AR and AR-V(ΔLBD) degradation after drug washout” value with full-length AR was “sustain low protein levels up to 24 h after drug washout”. For the same compound, the DC50 in the series on full-length AR (setting [2]) stood at 0.11 ± 0.02 µM; with full-length AR (setting [3]), 0.851 ± 0.43 µM. Also, in the series on full-length AR (CWR22Rv1 cells), the “AR Dmax CWR22Rv1” value came to 74%. In addition, the “AR Dmax VCaP” value with full-length AR (VCaP cells) was 94%. The AUC/Dose in series [1] (IP, 10 mg/kg, 0-24 h) is listed as 234.2 ± 26.3 h⋅kg⋅ng/mL/mg; in series [1] (PO, 10 mg/kg, 0-24 h), 20.4 ± 8.6 h⋅kg⋅ng/mL/mg. For the same compound, the results for the Tmax in series [1] (setting [4]) and in series [1] (setting [9]) were 1.5 ± 0.5 h and 0.7 ± 0.2 h, respectively. Besides, the bioavailability in series [1] (setting [9]) was determined as 4.6 ± 1.9%. In addition, the clearance in series [1] (setting [6]) was 24.7 mL/min/kg. Further, the AUC(0-t) in series [1] (setting [7]) was found to be 2340 ± 263 ng·h/mL; in series [1] (male, BALB/c, mouse, plasma, po, 10 mg/kg, 0-24 h), 204 ± 85.9 ng·h/mL. Also, the Cmax was found to be 706 ± 222 ng/mL in series [1] (setting [8]) and 95.7 ± 47.1 ng/mL in series [1] (male, BALB/c, mouse, plasma, po, 10 mg/kg, PO, 10 mg/kg, read-out: Cmax).

Regarding `Cc1ncsc1-c1ccc(CNC(=O)[C@@H]2C[C@H](O)CN2C(=O)[C@@H](NC(=O)COCCCCCCOc2ccc(C3CCN(C4=Nn5c(nnc5C(F)(F)F)CC4)CC3)cc2)C(C)(C)C)cc1` [ITRI-125, (2S,4S)-1-((S)-3,3-dimethyl-2-(2-(6-(4-(1-(3-(trifluoromethyl)-7,8-dihydro-[1,2,4]triazolo[4,3-b]pyridazin-6-yl)piperidin-4-yl)phenoxy)hexyloxy)acetamido)butanoyl)-4-hydroxy-N-(4-(4-methylthiazol-5-yl)benzyl)pyrrolidine-2-carboxamide], in the series with full-length AR, the “sustainability of AR and AR-V(ΔLBD) degradation after drug washout” value is “lost the degrading effects on both full-length and truncated AR within 8 h post drug removal”; the AR degradation turned out to be 92.53%. Further, in the series on full-length AR (setting [2]), the DC50 amounted to 6.64 ± 1.87 µM. In addition, the “AR Dmax CWR22Rv1” value in the series with full-length AR (CWR22Rv1 cells) is reported as 96%. Further, the 50% degradation concentration (DC50) in the series on full-length AR (setting [3]) was found to be 9.05 ± 3.75 µM. In the series with full-length AR (VCaP cells), the “AR Dmax VCaP” value was found to be 85%. Further, the AUC/Dose in series [1] (intravenous, 2 mg/kg) worked out at 2839.9 ± 36.7 ng·h/mL. Also, the clearance in series [1] (setting [6]) was found to be 5.68 mL/min/kg.
